# How the values were obtained:
# KIT D816V = KIT D816V (Homo sapiens (Human), UniProt P10721, D816V); test: Cell-based proliferation assay on BaF3 model, KIT D816V
# Method: Cell-based proliferation and viability assay CellTiter-Bleue cell-based survival/proliferation assay (Promega G8080) was performed on BaF3 models.
# A total of 1.10^4 cells/well/50 μl were seeded in a 96-wells plate. Treatment was initiated by addition of a 2× drug solution of ½ serial dilutions ranging from 0 to 10 μM. Cells were grown for 48-72 h at 37° C. and then incubated with 10 μl/well of Promega CellTiter-Bleue reagent for 4 h at 37° C. The amount of formazan dye formed was quantified by its absorbance at 450 nm using a scanning multiwell spectrophotometer (POLARstar Omega, BMG labtech, France). A blank well without cells was used as a background control for the spectrophotometer and all assays were performed in duplicates and the experiments were repeated at least twice.
# [1] = test system: murine model of arthritis; test: K/BxN serum mouse model of rheumatoid arthritis: ankle thickening and arthritis score; assay type: in vivo, C57Bl/6 mice
# Method: K/B×N serum pools were prepared from arthritic mice at 8 weeks of age. The mice were pre-treated with SYK inhibitors by two per os administration for two days before induction of arthritis. Arthritis was induced in the C57Bl/6 mice (8 weeks of age) by intraperitoneal injection (7.5 μl serum per g weight) at days 0 and 2.
# The treatment with SYK inhibitors was continued for 13 days. The control mice were injected with solvent before the induction of arthritis and during the course of the disease. The compounds were dissolved in a solution containing 10% of Tween 80 and 10% 1-2 propandiol. It was prepared before administration.
# Ankle thickening measure, being defined as the difference in ankle thickness from the day 0, was measured using a precision calliper. Arthritis/clinical score was defined by sum of scores of each lim (0 no disease; 1 mild swelling of paw or of just of few digits; 2 clear joint inflammation; 3 severe joint inflammation) maximum score=12.
# K/B×N was a murine model of spontaneous rheumatoid arthritis that mimics many of the clinical and histological features of human disease with synovitis predominantly in the distal small joints. Arthritis was induced by intraperitoneal injection of arthritis serum of K/B×N mice at days 0 and 2 as described in protocol assays above. Compound 001 was tested at 15 and 50 mg/kg/day b.i.d. and compared with Masitinib at 50 mg/kg/day b.i.d., an AB Science drug candidate for treating rheumatoid arthritis (Arthritis Res Ther., (2009), 11(3):R95). Ankle thickening and arthritis score were used to monitor the in vivo activity of the compounds.
# Jak3 = Jak3 (Homo sapiens (Human), UniProt P52333); test: HTRF kinase assay, Jak3; assay type: biochemical; details: enzymatic determination
# Method: (§1) Most of the kinases tested in this study were cloned, expressed and purified in the facilities of the inventors. They were expressed either as N-terminus hexahistidine-, hexahistidine-asparagine- or GST-tagged enzymes in a baculovirus or in a Colibacille expression system. Remaining enzymes (JAKs) were purchased from Millipore or Proqinase. For each enzyme, steady state kinetic parameters were determined and validated with known inhibitors.
# (§2) The analysis of the effect of compounds on kinase activity was assessed with the HTRF® KinEASE assay (Cisbio International), an immuno-assay based on the quantification of the level of phosphorylation of a biotinylated peptide substrate using anti-phospho-specific antibody labeled with Europium (Eu^3+) cryptate. This assay comprises two steps: —an enzymatic step, during which the peptide substrate, the kinase, ATP, Mg^2+ and/or Mn^2+ are incubated with varying concentration of drug (from 0 to 10 μM); —a detection step, at the end of the reaction (stopped by addition of EDTA which chelates Mg^2+), the antibody anti-phospho peptide-Eu^3+ (emission 620 nm) and streptavidin XL-665 (emission 665 nm) are added to the reaction mix. […] Results are expressed in delta fluorescence (DF) unit defined as follow DF %=[(ratio−ratio blank)/(ratio blank)]*100, where ratio=(665 nm/620 nm)*10^4. […]
# Btk = Btk (Homo sapiens (Human), UniProt Q06187); test: HTRF kinase assay, Btk; assay type: biochemical; details: enzymatic determination
# Method: as §1, §2
# VEGFR1 = VEGFR1 (Homo sapiens (Human), UniProt P17948); test: HTRF kinase assay, VEGFR1; assay type: biochemical; details: enzymatic determination
# Method: as §1, §2
# VEGFR2 = VEGFR2 (Homo sapiens (Human), UniProt P35968); test: HTRF kinase assay, VEGFR2; assay type: biochemical; details: enzymatic determination
# Method: as §1, §2
# [2] = WST-1 cell survival/proliferation assay on human cardiomyocytes; assay type: cell-based; details: Human Cardiac Myocyte
# Method: WST-1 cell survival/proliferation assay (Roche Diagnostic ref No 1644807) was performed on both primary human adult cardiomyocytes and rat neonatal cardiac myocytes.
# Human cardiomyocytes were isolated from normal human ventricle tissue of the adult heart and were able to proliferate for a number of passage. Neonatal ventricular Clonetics® Rat Cardiac Myocytes (P1-3) retained their contractile property and were electrophysiologically active in culture. 1.10^4 primary rat cells or 2-2.5 10^4 adult human cells were plated per well of a 96 wells plates. The cells were allowed to adhere to the plates for 5 days before drug treatment. Treatment was initiated by addition of a 2× drug solution of ½ serial dilutions ranging from 0 to 10 μM. Cells were grown for 48 h at 37° C. and then incubated with 10 μl/well of WST-1 reagent for 4 h at 37° C. The amount of formazan dye formed was quantified by its absorbance at 450 nm using a scanning multiwell spectrophotometer (MultiSkan MS, Thermo-LabSystems, France). A blank well without cells was used as a background control for the spectrophotometer and all assays were performed in triplicate.
# TNFα = test: FcεRI and Kit-induced TNFα cytokine release in BMMCs; assay type: cell-based, C57BL/6J mice
# Method: Murine bone marrow mast cells (BMMCs) are obtained by flushing bone marrow cells from the femurs of C57BL/6J mice, and then cultured for 3-4 weeks in RPMI containing mouse recombinant IL-3 (30 ng/ml). Cells were sensitized overnight in IL3-depleted culture medium with 0.1-0.2 μg/ml anti-DNP-IgE (Sigma-Aldrich D8406). Cells were preincubated with inhibitors for 30 min, and then stimulated with 10 ng/ml antigen (Ag) and/or Stem Cell Factor (SCF) (30 ng/ml). The cells were incubated for 6 h. The supernatants were harvested, and the cytokine content measured using CISBIO IL6 and TNFα HTRF assay (cat#63ADKEBU043 and 6FMTNPEB respectively).
# Sequence of VEGFR1 (P17948 27-1338, species assumed): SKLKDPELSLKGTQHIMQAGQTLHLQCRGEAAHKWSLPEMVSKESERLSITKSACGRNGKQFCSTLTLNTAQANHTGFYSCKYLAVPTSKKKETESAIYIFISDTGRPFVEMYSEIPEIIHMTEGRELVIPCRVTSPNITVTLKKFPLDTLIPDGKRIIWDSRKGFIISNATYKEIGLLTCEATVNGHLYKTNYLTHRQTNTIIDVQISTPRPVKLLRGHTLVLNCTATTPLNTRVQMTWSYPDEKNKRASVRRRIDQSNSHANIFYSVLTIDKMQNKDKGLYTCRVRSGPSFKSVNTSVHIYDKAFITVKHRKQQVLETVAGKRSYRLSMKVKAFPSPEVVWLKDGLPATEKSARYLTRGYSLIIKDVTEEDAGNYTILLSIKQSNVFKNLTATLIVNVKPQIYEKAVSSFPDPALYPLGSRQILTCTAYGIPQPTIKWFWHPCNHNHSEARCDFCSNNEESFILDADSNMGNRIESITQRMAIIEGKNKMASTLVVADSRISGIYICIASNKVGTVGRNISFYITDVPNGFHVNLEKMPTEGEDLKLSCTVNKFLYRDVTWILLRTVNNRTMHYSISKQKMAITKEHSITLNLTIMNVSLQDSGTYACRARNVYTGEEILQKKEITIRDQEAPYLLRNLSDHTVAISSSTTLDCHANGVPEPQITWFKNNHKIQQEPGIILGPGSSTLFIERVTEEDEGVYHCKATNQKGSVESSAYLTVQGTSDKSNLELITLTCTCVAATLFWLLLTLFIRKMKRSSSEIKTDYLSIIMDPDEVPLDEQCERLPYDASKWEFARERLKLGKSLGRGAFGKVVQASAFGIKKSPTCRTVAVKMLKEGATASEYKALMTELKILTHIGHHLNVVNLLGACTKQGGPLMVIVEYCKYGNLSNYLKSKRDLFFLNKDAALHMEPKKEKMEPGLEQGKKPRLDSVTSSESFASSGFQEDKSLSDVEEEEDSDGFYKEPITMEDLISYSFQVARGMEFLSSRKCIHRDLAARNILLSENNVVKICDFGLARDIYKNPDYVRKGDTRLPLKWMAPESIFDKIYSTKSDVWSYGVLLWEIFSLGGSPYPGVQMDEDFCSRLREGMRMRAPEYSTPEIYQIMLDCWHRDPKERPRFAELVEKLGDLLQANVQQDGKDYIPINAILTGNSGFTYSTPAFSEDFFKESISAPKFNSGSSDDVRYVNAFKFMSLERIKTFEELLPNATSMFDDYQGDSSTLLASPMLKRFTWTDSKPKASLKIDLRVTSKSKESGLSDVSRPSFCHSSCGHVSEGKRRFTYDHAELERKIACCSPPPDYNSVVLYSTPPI
# Sequence of VEGFR2 (P35968 20-1356, species assumed): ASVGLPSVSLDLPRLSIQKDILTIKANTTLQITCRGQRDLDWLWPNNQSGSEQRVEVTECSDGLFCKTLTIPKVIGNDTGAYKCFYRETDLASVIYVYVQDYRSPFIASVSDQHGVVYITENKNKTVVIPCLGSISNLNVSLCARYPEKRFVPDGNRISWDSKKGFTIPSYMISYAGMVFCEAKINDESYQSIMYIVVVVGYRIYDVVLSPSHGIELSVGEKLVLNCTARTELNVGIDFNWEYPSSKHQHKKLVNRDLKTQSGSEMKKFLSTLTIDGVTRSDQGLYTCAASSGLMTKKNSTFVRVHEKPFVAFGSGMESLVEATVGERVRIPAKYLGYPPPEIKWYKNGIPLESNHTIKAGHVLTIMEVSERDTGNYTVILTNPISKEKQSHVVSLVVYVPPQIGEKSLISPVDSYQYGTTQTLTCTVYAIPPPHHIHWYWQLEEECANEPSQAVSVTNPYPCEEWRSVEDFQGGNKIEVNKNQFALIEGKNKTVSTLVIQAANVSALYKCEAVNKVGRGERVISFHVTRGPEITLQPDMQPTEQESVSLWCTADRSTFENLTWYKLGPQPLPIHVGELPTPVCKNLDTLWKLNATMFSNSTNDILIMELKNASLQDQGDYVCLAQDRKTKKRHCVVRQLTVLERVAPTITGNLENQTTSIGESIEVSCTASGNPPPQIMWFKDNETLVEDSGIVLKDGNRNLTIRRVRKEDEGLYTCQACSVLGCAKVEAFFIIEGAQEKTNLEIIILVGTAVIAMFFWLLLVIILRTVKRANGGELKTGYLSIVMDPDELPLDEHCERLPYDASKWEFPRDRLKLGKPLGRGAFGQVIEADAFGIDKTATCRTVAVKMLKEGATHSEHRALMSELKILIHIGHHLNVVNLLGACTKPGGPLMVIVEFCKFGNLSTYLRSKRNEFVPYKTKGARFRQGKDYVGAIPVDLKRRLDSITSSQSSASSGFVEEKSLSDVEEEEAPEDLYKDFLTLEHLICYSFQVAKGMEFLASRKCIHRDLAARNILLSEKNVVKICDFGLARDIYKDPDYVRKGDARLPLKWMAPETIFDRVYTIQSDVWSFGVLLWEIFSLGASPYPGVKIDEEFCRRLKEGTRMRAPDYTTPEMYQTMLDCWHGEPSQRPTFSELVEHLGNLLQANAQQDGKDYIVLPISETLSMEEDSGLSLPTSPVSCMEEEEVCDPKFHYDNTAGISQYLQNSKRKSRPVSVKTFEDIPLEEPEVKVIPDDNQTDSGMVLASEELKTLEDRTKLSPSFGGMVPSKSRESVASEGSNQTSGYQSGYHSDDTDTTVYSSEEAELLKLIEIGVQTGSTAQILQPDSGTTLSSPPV
# Sequence of Jak3 (P52333 whole entry): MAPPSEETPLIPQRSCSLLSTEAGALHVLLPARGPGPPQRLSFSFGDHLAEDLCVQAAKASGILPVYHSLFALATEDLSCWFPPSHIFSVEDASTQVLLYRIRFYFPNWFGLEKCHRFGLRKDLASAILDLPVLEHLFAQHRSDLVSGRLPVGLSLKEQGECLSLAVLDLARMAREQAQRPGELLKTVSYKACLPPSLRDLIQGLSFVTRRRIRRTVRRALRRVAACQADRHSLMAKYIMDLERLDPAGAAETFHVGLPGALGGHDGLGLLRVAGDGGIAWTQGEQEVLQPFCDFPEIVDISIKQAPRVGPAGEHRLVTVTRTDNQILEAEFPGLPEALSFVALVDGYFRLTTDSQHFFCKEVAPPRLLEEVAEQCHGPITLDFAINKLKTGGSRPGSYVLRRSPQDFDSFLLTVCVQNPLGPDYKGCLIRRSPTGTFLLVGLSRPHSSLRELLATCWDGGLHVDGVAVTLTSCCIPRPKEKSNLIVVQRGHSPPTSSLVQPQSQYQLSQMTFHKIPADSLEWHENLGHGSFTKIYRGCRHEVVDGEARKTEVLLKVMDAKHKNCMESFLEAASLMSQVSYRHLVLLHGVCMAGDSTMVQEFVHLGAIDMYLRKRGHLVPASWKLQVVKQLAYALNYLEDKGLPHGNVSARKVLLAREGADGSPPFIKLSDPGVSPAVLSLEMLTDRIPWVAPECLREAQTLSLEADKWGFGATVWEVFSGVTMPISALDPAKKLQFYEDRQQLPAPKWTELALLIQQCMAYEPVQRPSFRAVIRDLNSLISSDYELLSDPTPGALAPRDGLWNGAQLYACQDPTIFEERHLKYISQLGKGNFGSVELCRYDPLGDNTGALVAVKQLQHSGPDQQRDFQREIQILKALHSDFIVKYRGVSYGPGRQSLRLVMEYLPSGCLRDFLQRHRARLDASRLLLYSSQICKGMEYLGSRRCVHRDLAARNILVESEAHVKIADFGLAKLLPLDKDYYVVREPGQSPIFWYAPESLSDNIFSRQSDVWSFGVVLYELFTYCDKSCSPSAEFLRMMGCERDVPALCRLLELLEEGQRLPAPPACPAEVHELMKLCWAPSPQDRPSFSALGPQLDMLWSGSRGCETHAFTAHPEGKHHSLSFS
# Sequence of KIT D816V (P10721 26-976 D816V): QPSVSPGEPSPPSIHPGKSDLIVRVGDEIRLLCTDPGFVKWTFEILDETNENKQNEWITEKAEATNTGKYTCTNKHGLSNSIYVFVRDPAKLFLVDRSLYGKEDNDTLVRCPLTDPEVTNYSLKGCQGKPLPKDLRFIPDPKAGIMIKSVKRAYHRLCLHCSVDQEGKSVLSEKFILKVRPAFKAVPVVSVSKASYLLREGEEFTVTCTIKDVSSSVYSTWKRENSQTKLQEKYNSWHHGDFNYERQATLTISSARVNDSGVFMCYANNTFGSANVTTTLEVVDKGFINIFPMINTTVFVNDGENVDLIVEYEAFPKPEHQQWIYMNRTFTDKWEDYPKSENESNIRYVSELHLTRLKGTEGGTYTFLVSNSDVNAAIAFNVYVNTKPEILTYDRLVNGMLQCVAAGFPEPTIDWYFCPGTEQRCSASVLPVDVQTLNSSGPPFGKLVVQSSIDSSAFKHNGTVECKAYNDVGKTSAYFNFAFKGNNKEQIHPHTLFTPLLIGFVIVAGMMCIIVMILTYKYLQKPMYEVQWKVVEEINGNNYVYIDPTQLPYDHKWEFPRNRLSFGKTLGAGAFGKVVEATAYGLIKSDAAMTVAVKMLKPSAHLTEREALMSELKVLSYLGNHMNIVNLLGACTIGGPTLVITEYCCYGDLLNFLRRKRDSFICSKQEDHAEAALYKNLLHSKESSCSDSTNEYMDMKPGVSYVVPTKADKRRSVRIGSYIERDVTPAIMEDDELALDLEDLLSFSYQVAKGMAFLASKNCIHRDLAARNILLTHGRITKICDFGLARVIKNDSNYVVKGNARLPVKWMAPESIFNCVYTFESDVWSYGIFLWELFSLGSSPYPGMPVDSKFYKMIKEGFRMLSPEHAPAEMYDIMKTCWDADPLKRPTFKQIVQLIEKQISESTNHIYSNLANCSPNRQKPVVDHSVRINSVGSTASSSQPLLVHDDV
structure (smiles),measurement,setting,value
"Cc1ccnc(Nc2cccc(-c3cnc(N4CCNC(=O)C45CC5)o3)c2)n1 [Compound 001, 4-{5-[3-(4-Methyl-pyrimidin-2-ylamino)-phenyl]-oxazol-2-yl}-4,7-diaza-spiro[2.5]octan-8-one]",IC50,KIT D816V,10 µM
same,Ankle Thickening Score,[1]; 15 mg/kg b.i.d.,−17%
same,Arthritis Score,[1]; 15 mg/kg b.i.d.,−23%
same,Ankle Thickening Score,[1]; 50 mg/kg b.i.d.,−52% P < 0.005
same,Arthritis Score,[1]; 50 mg/kg b.i.d.,−68% P < 0.005
same,reduction of ankle thickening,[1]; 2×50 mg/kg/day,52%
same,reduction of arthritis score,[1]; 2×50 mg/kg/day,68%
same,IC50,Jak3,20 µM
same,IC50,Btk,20 µM
same,IC50,VEGFR1,7.5 µM
same,IC50,VEGFR2,20 µM
same,IC50 at 48 h,"[2]; 48 h, read-out: Drug-induced cytotoxicity IC50, Hu-CM",10 µM
same,"viability at 48 h, 1 µM","[2]; primary human adult cardiomyocytes, 1 μM, read-out: % cell viable at 1 μM, Hu-CM",14%
same,TNFα Cytokine Release (% relative to control Ag + SCF),TNFα; Ag + SCF + 0.01 μM of compound,95%
same,TNFα Cytokine Release (Relative Fluorescence Units),TNFα; Ag + SCF + 0.01 μM of compound,468 Relative Fluorescence Units
same,TNFα Cytokine Release (% relative to control Ag + SCF),TNFα; Ag + SCF + 0.1 μM of compound,32%
same,TNFα Cytokine Release (Relative Fluorescence Units),TNFα; Ag + SCF + 0.1 μM of compound,158 Relative Fluorescence Units
same,TNFα Cytokine Release (% relative to control Ag + SCF),TNFα; Ag + SCF + 1 μM of compound,2%
same,TNFα Cytokine Release (Relative Fluorescence Units),TNFα; Ag + SCF + 1 μM of compound,9.5 Relative Fluorescence Units
same,IC50,"TNFα; Mus musculus, BMMC, Ag + SCF stimulated BMMCs",~0.05 µM

# Reference: patent US10053455B2, “Diazaspiroalkaneone-substituted oxazole derivatives as spleen tyrosine kinase inhibitors” (AB SCIENCE, priority 2014, dated 2018)
